Entries after “also recorded” stand apart in the source; their conditions may differ. Values belong to the compound of their own block, whether it stands above or below them.
Tests used:
[1] = system: rat cortical neurons; assay: MTT reduction cell viability assay after Aβ exposure; type: cell-based; details: 25 µM, 24 h, MTT, positive control
Experimental: (§1) Aβ25-35 and Aβ1-42 were water-soluble peptides, however, while Aβ25-35, the functional domain of Aβ required for both neurotrophic and neurotoxic effects, was directly added to neuronal cultures after its solubilisation, Aβ1-42 was solved in water and maintained for 24 h at 37 °C before its addition to promote its aggregation. To test the effect of mGluR ligands on cell death induced by Aβ in neuronal cultures, these drugs were added 30 min before the addition of Aβ25-35 and maintained during Aβ exposure. Unless otherwise indicated, all chemicals were dissolved in water.
(§2) Cell viability was determined on 96-well plates using an in vitro toxicology assay kit based on a mitochondrial-dependent reaction that transforms 3-[4,5-dimetylthiazol-2-yl]-2,5-diphenyltetrazolium bromide (MTT) into formazan crystals. Briefly, at the end of treatments, cells were incubated in culture medium with MTT solution (5 mg/mL) at 37 °C for 3 h. After incubation, MTT solubilization solution (10% Triton X-100 plus 0.1 M HCl in isopropanol anhydrous) was added into the wells to dissolve formazan crystals and the absorbance of each well was measured at 570 nm and 690 nm, according to the manufacturer’s instructions.

[2] = system: rat cortical neurons exposed to Aβ25-35; assay: Effect of receptor ligands on Aβ25-35 induced toxicity (MTT); type: cell-based; details: ligand 100 µM added 30 min before Aβ25-35 (25 µM, 24 h)
Experimental: as §1, §2

[3] = system: Group I mGluR/PLC signalling pathway; assay: Phospholipase C activity (IP3 accumulation), basal and DHPG-stimulated; type: cell-based, rat; details: added 10 min before DHPG, control cells
Experimental: This method was previously reported and is divided into two well-defined steps: IP3 accumulation: culture medium was discharged, and cells were washed twice with DMEM containing 20 mM HEPES, pH 7.4. After 20 min at 37 °C, different ligands were added to cells for 10 min at 37 °C to analyse their effect on PLC activity in a final reaction volume of 300 μL. The enzymatic reaction was stopped and cells lysed by adding 50 μL 2.8 M perchloric acid and placing plates on ice for 30 min. The medium was neutralized with 70 μ[…] Tris-HCl, 2 M KOH, and 60 mM EGTA, transferred to Eppendorf tubes and centrifuged at 12,000× g for 10 min. The supernatant was then collected to determine the IP3 level. IP3 level determination: IP3 levels in cells were determined as previously reported by Palmer and modified by […] [100]. Incubation of [^3H]IP3 (0.2 pmol; 3000-5000 cpm) in assay buffer (100 mM Tris-HCl, 4 mM EDTA, 4 mM EGTA, 4 mg/mL BSA, pH 9.0), binding protein (500-600 μg), and 25-50 μL of supernatant obtained from IP3 accumulation assay was carried out. Samples were incubated at 4 °C for 60 min and centrifuged at 12,000× g for 10 min. Pellets were suspended in 100 μL 0.2% SDS and transferred to scintillation vials to measure radioactivity. A standard curve was made with known [^3H]IP3 concentrations (0.25-10 μM). Nonspecific binding was determined in the presence of 10 μM unlabeled IP3. Binding protein was obtained from bovine suprarenal capsules according to Palmer's protocol.

Compound: Aβ1-42: whole amyloid β peptide, kept 24 h at 37 °C to promote aggregation; positive control
cell viability [1]: decrease in cell viability

Compound: CCCn1c(=O)c2[nH]c(C3CCCC3)nc2n(CCC)c1=O [DPCPX, 8-Cyclopentyl-1,3-dipropylxanthine]
effect on Aβ25-35 induced toxicity [2]: no significant effect; also recorded: ineffective

effect on DHPG-elicited PLC stimulation ([3]; 1 µM): blocked DHPG-elicited PLC stimulation
Compound: Cc1cccc(C#Cc2ccccc2)n1.Cl [MPEP, 2-Methyl-6-(phenylethynyl)pyridine hydrochloride]

Compound: N[C@H](C(=O)O)c1cc(O)cc(O)c1 [DHPG, (S)-3,5-dihydroxyphenylglycine]
effect on Aβ25-35 induced toxicity [2]: no significant effect

Compound: OC[C@H]1O[C@@H](n2cnc3c(NC4CCCC4)ncnc32)[C@H](O)[C@@H]1O [CPA, N^6-cyclopentyladenosine]
effect on Aβ25-35 induced toxicity [2]: no significant effect

Compound: Nc1nc(NCCc2ccc(O)cc2)nc2nc(-c3ccco3)nn12 [ZM241385, 4-(2-[7-Amino-2-(2-furyl) [1,2,4]triazolo [2,3-a] [1,3,5]triazin-5-ylamino]ethyl)phenol]
effect on Aβ25-35 induced toxicity [2]: no significant effect

Compound: CO[C@H]1CC[C@@H](C(=O)c2ccc3nc4c(cc3c2)CCCO4)CC1 [JNJ 16259685, (3,4-Dihydro-2H-pyrano[2,3-b]quinolin-7-yl)-(cis-4-methoxycyclohexyl)-methanone]
effect on DHPG-elicited PLC stimulation ([3]; 0.5 µM): blocked DHPG-elicited PLC stimulation

Compound: CCNC(=O)[C@H]1O[C@@H](n2cnc3c(N)nc(NCCc4ccc(CCC(=O)O)cc4)nc32)[C@H](O)[C@@H]1O [CGS21680, 2-[p-(2-carboxyethyl)phenylamino]-50-N-ethylcarboxyamide adenosine]
effect on Aβ25-35 induced toxicity [2]: no significant effect
